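Values below derive from 48-hour exposures of cells grown in 96-well plates, with endpoints linearly interpolated between the two concentrations bracketing the appropriate inhibition level. TGI: total growth inhibition.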
Columns and labels:
Assay in all cases: inhibition of tumour cell growth, NCI panel, 48 h
MDA-N = system: MDA-N
HCT-116 colon = system: HCT-116 colon
PC-3 prostate = system: PC-3 prostate
A498 renal = system: A498 renal
UACC-257 melanoma = system: UACC-257 melanoma
BT-549 breast = system: BT-549 breast
KM12 colon = system: KM12 colon
CAKI-1 renal = system: CAKI-1 renal
MCF7 breast = system: MCF7 breast
M14 melanoma = system: M14 melanoma
HOP-62 NSCLC = system: HOP-62 NSCLC
NCI-H23 lung = system: NCI-H23 lung
SN12C renal = system: SN12C renal
U251 CNS = system: U251 CNS
T-47D breast = system: T-47D breast
SK-MEL-28 melanoma = system: SK-MEL-28 melanoma
SW-620 colon = system: SW-620 colon
MOLT-4 leukemia = system: MOLT-4 leukemia
RPMI-8226 leukemia = system: RPMI-8226 leukemia
SNB-19 CNS = system: SNB-19 CNS
ACHN renal = system: ACHN renal
UO-31 renal = system: UO-31 renal
SK-MEL-2 melanoma = system: SK-MEL-2 melanoma
MDA-MB-435 = system: MDA-MB-435
DU-145 prostate = system: DU-145 prostate
MDA-MB-231 breast = system: MDA-MB-231 breast
HT29 colon = system: HT29 colon
TK-10 renal = system: TK-10 renal
SR leukemia = system: SR leukemia
EKVX NSCLC = system: EKVX NSCLC
OVCAR-8 ovarian = system: OVCAR-8 ovarian
OVCAR-5 ovarian = system: OVCAR-5 ovarian
UACC-62 melanoma = system: UACC-62 melanoma
SK-OV-3 ovarian = system: SK-OV-3 ovarian
NCI-H226 lung = system: NCI-H226 lung
NCI/ADR-RES ovarian = system: NCI/ADR-RES ovarian
786-0 renal = system: 786-0 renal
MALME-3M melanoma = system: MALME-3M melanoma
SK-MEL-5 melanoma = system: SK-MEL-5 melanoma
HS 578T breast = system: HS 578T breast
NCI-H460 lung = system: NCI-H460 lung
NCI-H522 lung = system: NCI-H522 lung
HCC-2998 colon = system: HCC-2998 colon
K-562 leukemia = system: K-562 leukemia
RXF 393 renal = system: RXF 393 renal
IGROV1 ovarian = system: IGROV1 ovarian
HOP-92 NSCLC = system: HOP-92 NSCLC
A549 NSCLC = system: A549 NSCLC
SNB-75 CNS = system: SNB-75 CNS
COLO 205 colon = system: COLO 205 colon
HL-60(TB) leukemia = system: HL-60(TB) leukemia
SF-539 CNS = system: SF-539 CNS
CCRF-CEM leukemia = system: CCRF-CEM leukemia
OVCAR-3 ovarian = system: OVCAR-3 ovarian
SF-268 CNS = system: SF-268 CNS
SF-295 CNS = system: SF-295 CNS
OVCAR-4 ovarian = system: OVCAR-4 ovarian
HCT-15 colon = system: HCT-15 colon
LOX IMVI melanoma = system: LOX IMVI melanoma

For `CCOC(=O)C(C)c1nc2cc(N3CCOCC3)c(F)cc2[nH]c1=O` (stereo unspecified), the TGI (MDA-N) was greater than 100 µM, the TGI (HCT-116 colon) was greater than 100 µM and the TGI (PC-3 prostate) was greater than 100 µM. It also gave a TGI (A498 renal) greater than 100 µM, a TGI (UACC-257 melanoma) greater than 100 µM and a TGI (BT-549 breast) greater than 100 µM. The TGI (KM12 colon) was greater than 100 µM, the TGI (CAKI-1 renal) was greater than 100 µM and the TGI (MCF7 breast) was greater than 100 µM. It also gave a TGI (M14 melanoma) greater than 100 µM, a TGI (HOP-62 NSCLC) greater than 100 µM and a TGI (NCI-H23 lung) greater than 100 µM. The TGI (SN12C renal) was greater than 100 µM, the TGI (U251 CNS) was greater than 100 µM and the TGI (T-47D breast) was greater than 100 µM. It also gave a TGI (SK-MEL-28 melanoma) greater than 100 µM, a TGI (SW-620 colon) greater than 100 µM and a TGI (MOLT-4 leukemia) greater than 100 µM. For the same molecule, the TGI (RPMI-8226 leukemia) was greater than 100 µM, the TGI (SNB-19 CNS) was greater than 100 µM and the TGI (ACHN renal) was greater than 100 µM. The TGI (UO-31 renal) was greater than 100 µM, the TGI (SK-MEL-2 melanoma) was greater than 100 µM and the TGI (MDA-MB-435) was greater than 100 µM. The TGI (DU-145 prostate) was greater than 100 µM, the TGI (MDA-MB-231 breast) was greater than 100 µM and the TGI (HT29 colon) was greater than 100 µM. It also gave a TGI (TK-10 renal) greater than 100 µM, a TGI (SR leukemia) greater than 100 µM and a TGI (EKVX NSCLC) greater than 100 µM. For the same molecule, the TGI (OVCAR-8 ovarian) was greater than 100 µM, the TGI (OVCAR-5 ovarian) was greater than 100 µM and the TGI (UACC-62 melanoma) was greater than 100 µM. For the same molecule, the TGI (SK-OV-3 ovarian) was greater than 100 µM, the TGI (NCI-H226 lung) was greater than 100 µM and the TGI (NCI/ADR-RES ovarian) was greater than 100 µM. It also gave a TGI (786-0 renal) greater than 100 µM, a TGI (MALME-3M melanoma) greater than 100 µM and a TGI (SK-MEL-5 melanoma) greater than 100 µM. The TGI (HS 578T breast) was greater than 100 µM, the TGI (NCI-H460 lung) was greater than 100 µM and the TGI (NCI-H522 lung) was greater than 100 µM. The TGI (HCC-2998 colon) was greater than 100 µM, the TGI (K-562 leukemia) was greater than 100 µM and the TGI (RXF 393 renal) was greater than 100 µM. It also gave a TGI (IGROV1 ovarian) greater than 100 µM, a TGI (HOP-92 NSCLC) greater than 100 µM and a TGI (A549 NSCLC) greater than 100 µM. The TGI (SNB-75 CNS) was greater than 100 µM, the TGI (COLO 205 colon) was greater than 100 µM and the TGI (HL-60(TB) leukemia) was greater than 100 µM. For the same molecule, the TGI (SF-539 CNS) was greater than 100 µM, the TGI (CCRF-CEM leukemia) was greater than 100 µM and the TGI (OVCAR-3 ovarian) was greater than 100 µM. The TGI (SF-268 CNS) was greater than 100 µM, the TGI (SF-295 CNS) was greater than 100 µM and the TGI (OVCAR-4 ovarian) was greater than 100 µM. For the same molecule, the TGI (HCT-15 colon) was greater than 100 µM.

Work on `CC1(C)CC[C@]2(C(=O)O)CC[C@]3(C)C(=CC[C@@H]4[C@@]5(C)CC[C@H](OC6OC(C(=O)O)C(O)C(O)C6O)C(C)(C)[C@@H]5CC[C@]43C)[C@@H]2C1` (stereo partly specified) yielded a TGI (MDA-N) of 33.8 µM, a TGI (HCT-116 colon) of 30.4 µM and a TGI (PC-3 prostate) of 33 µM. The TGI (LOX IMVI melanoma) was 35.8 µM, the TGI (A498 renal) was 35.7 µM and the TGI (UACC-257 melanoma) was 30.8 µM. For the same molecule, the TGI (BT-549 breast) was 40.5 µM, the TGI (KM12 colon) was 34.7 µM and the TGI (CAKI-1 renal) was 33.7 µM. For the same molecule, the TGI (MCF7 breast) was 40.8 µM, the TGI (M14 melanoma) was 30.6 µM and the TGI (HOP-62 NSCLC) was 33.9 µM. For the same molecule, the TGI (NCI-H23 lung) was 37.1 µM, the TGI (SN12C renal) was 30.8 µM and the TGI (U251 CNS) was 28 µM. The TGI (T-47D breast) was 36.3 µM, the TGI (SK-MEL-28 melanoma) was 39.7 µM and the TGI (SW-620 colon) was 31.8 µM. The TGI (MOLT-4 leukemia) was 41.3 µM, the TGI (RPMI-8226 leukemia) was 44.4 µM and the TGI (SNB-19 CNS) was 48.7 µM. For the same molecule, the TGI (ACHN renal) was 29.6 µM, the TGI (UO-31 renal) was 36.3 µM and the TGI (SK-MEL-2 melanoma) was 29.8 µM. The TGI (MDA-MB-435) was 38.5 µM, the TGI (DU-145 prostate) was 31.4 µM and the TGI (MDA-MB-231 breast) was 33.5 µM. For the same molecule, the TGI (HT29 colon) was 28.4 µM, the TGI (SR leukemia) was 41.1 µM and the TGI (EKVX NSCLC) was 64.8 µM. For the same molecule, the TGI (OVCAR-8 ovarian) was 44.9 µM, the TGI (OVCAR-5 ovarian) was 29.7 µM and the TGI (UACC-62 melanoma) was 33.4 µM. For the same molecule, the TGI (SK-OV-3 ovarian) was 41.6 µM, the TGI (NCI-H226 lung) was 39.5 µM and the TGI (NCI/ADR-RES ovarian) was 37.2 µM. It also gave a TGI (786-0 renal) of 33.6 µM, a TGI (MALME-3M melanoma) of 34.2 µM and a TGI (SK-MEL-5 melanoma) of 33.2 µM. It also gave a TGI (HS 578T breast) of 44 µM, a TGI (NCI-H460 lung) of 37.2 µM and a TGI (NCI-H522 lung) of 35.3 µM. The TGI (HCC-2998 colon) was 38.2 µM, the TGI (K-562 leukemia) was 37.5 µM and the TGI (RXF 393 renal) was 31.1 µM. It also gave a TGI (IGROV1 ovarian) of 35 µM, a TGI (HOP-92 NSCLC) of 25.9 µM and a TGI (A549 NSCLC) of 39.3 µM. It also gave a TGI (SNB-75 CNS) of 35.1 µM, a TGI (COLO 205 colon) of 30.8 µM and a TGI (HL-60(TB) leukemia) of 35.5 µM. The TGI (CCRF-CEM leukemia) was 42.8 µM, the TGI (OVCAR-3 ovarian) was 28 µM and the TGI (SF-268 CNS) was 38.6 µM. The TGI (SF-295 CNS) was 28.7 µM, the TGI (OVCAR-4 ovarian) was 33.9 µM and the TGI (HCT-15 colon) was 30.6 µM.

`CCc1n[nH]c(=O)n1N1C(=O)C2CCCCC2C1=O` (stereo unspecified) showed a TGI (MDA-N) greater than 100 µM, a TGI (HCT-116 colon) greater than 100 µM and a TGI (PC-3 prostate) greater than 100 µM. For the same molecule, the TGI (LOX IMVI melanoma) was greater than 100 µM, the TGI (A498 renal) was greater than 100 µM and the TGI (UACC-257 melanoma) was greater than 100 µM. The TGI (BT-549 breast) was greater than 100 µM, the TGI (KM12 colon) was greater than 100 µM and the TGI (CAKI-1 renal) was greater than 100 µM. It also gave a TGI (MCF7 breast) greater than 100 µM, a TGI (M14 melanoma) greater than 100 µM and a TGI (HOP-62 NSCLC) greater than 100 µM. The TGI (NCI-H23 lung) was greater than 100 µM, the TGI (SN12C renal) was greater than 100 µM and the TGI (U251 CNS) was greater than 100 µM. For the same molecule, the TGI (T-47D breast) was greater than 100 µM, the TGI (SK-MEL-28 melanoma) was greater than 100 µM and the TGI (SW-620 colon) was greater than 100 µM. The TGI (MOLT-4 leukemia) was greater than 100 µM, the TGI (RPMI-8226 leukemia) was greater than 100 µM and the TGI (ACHN renal) was greater than 100 µM. The TGI (UO-31 renal) was greater than 100 µM, the TGI (SK-MEL-2 melanoma) was greater than 100 µM and the TGI (MDA-MB-435) was greater than 100 µM. The TGI (DU-145 prostate) was greater than 100 µM, the TGI (MDA-MB-231 breast) was greater than 100 µM and the TGI (HT29 colon) was greater than 100 µM. It also gave a TGI (TK-10 renal) greater than 100 µM, a TGI (SR leukemia) greater than 100 µM and a TGI (EKVX NSCLC) greater than 100 µM. It also gave a TGI (OVCAR-8 ovarian) greater than 100 µM, a TGI (OVCAR-5 ovarian) greater than 100 µM and a TGI (UACC-62 melanoma) greater than 100 µM. The TGI (SK-OV-3 ovarian) was greater than 100 µM, the TGI (NCI-H226 lung) was greater than 100 µM and the TGI (NCI/ADR-RES ovarian) was greater than 100 µM. For the same molecule, the TGI (786-0 renal) was greater than 100 µM, the TGI (MALME-3M melanoma) was greater than 100 µM and the TGI (SK-MEL-5 melanoma) was greater than 100 µM. It also gave a TGI (HS 578T breast) greater than 100 µM, a TGI (NCI-H522 lung) greater than 100 µM and a TGI (HCC-2998 colon) greater than 100 µM. The TGI (K-562 leukemia) was greater than 100 µM, the TGI (RXF 393 renal) was greater than 100 µM and the TGI (IGROV1 ovarian) was greater than 100 µM. It also gave a TGI (HOP-92 NSCLC) greater than 100 µM, a TGI (A549 NSCLC) greater than 100 µM and a TGI (SNB-75 CNS) greater than 100 µM. It also gave a TGI (COLO 205 colon) greater than 100 µM, a TGI (HL-60(TB) leukemia) greater than 100 µM and a TGI (CCRF-CEM leukemia) greater than 100 µM. The TGI (OVCAR-3 ovarian) was greater than 100 µM, the TGI (SF-268 CNS) was greater than 100 µM and the TGI (SF-295 CNS) was greater than 100 µM. The TGI (OVCAR-4 ovarian) was greater than 100 µM and the TGI (HCT-15 colon) was greater than 100 µM.

Source: PubChem BioAssay (NCI)
